Assays:
prostaglandin synthetase = target: T1, prostaglandin synthetase (Ovis aries, UniProt P05979); assay: Inhibition of prostaglandin synthesis, sheep vesicular gland microsomal preparation, oxygen electrode; format: biochemical; conditions: sheep vesicular gland microsomes, pH 8.0, inhibitor added 1 minute before arachidonate; oxygen uptake; read-out: [I]50 Values for Inhibition of Prostaglandin Synthesis
T1 construct: sheep vesicular gland microsomal preparation; from tissue; host or cells: sheep vesicular gland microsomes
T1 sequence (P05979 25-600): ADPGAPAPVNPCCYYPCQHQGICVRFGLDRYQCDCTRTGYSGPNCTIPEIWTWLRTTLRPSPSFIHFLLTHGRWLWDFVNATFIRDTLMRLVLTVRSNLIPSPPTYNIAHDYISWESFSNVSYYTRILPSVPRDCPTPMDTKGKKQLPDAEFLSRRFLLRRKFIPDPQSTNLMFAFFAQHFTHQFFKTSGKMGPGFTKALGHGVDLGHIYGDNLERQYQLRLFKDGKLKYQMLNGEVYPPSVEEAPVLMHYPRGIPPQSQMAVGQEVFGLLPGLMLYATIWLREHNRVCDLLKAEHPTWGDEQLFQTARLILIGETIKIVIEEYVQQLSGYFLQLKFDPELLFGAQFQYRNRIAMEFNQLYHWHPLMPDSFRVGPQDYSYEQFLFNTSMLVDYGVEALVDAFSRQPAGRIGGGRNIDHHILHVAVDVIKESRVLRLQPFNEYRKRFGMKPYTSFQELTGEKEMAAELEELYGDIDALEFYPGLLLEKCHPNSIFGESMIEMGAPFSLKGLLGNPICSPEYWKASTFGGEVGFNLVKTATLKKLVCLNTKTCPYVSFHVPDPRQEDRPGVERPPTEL
Method: A commonly used model system for examination of prostaglandin synthetase inhibition is the sheep vesicular gland microsomal preparation (Wallach, D. P. and Daniels, E. G., Biochim. Biophys. Acta., 231: 445-457 (1971)). Prostaglandin synthetase activity was determined by following oxygen tension in a closed reaction chamber using a Clark-type oxygen electrode. For each assay, 2.9 ml of 0.1 M tris HCl buffer, pH 8.0, 10 ul of 0.2 M phenol, and 50 ul of enzyme suspension (2.5 mg microsomal preparation) were added to the reaction chamber. 10 ul of inhibitor in ethanol were added 1 minute prior to initiation of the reaction. The reaction was initiated by addition of 10 ul of 3.7 mM arachidonate solution. The concentration of an inhibitor that reduced prostaglandin synthesis by 50% ([I]50) was determined from plots of activity v. log concentration of inhibitor.

platelet aggregation = assay: Inhibition of arachidonate-induced platelet aggregation in platelet-rich plasma (aggregometer); format: cell-based; conditions: 37° C, 50 ul of 10 mM arachidonate, read-out: [I]50, concentration of inhibitor which prevented irreversible aggregation 50% of the time
Method: Inhibition of platelet aggregation by prostaglandin synthetase inhibitors is of potential value in treating thromboembolic disorders. Aggregation experiments were performed in a single-channel Chrono-log Platelet Aggregometer at 37° C. To 500 ul of platelet-rich plasm were added 2 ul of inhibitor solution and 50 ul of 10 mM arachidonate. The [I]50 value was defined as the concentration of inhibitor which prevented irreversible aggregation 50% of the time. The [I]50 of 2-(phenylmethoxy)phenol was 0.57 uM.

Question: Which IC50 (prostaglandin synthetase) does the source give for `Cc1ccccc1COc1ccccc1O` [2-(2-methylphenylmethoxy)phenol] here?
Answer: 4.7 µM

Question: How did the IC50 (prostaglandin synthetase) turn out when `Oc1ccccc1OCc1cccc(Cl)c1` [2-(3-chlorophenylmeythoxy)phenol, 2-(3-chlorophenylmethoxy)phenol] was run?
Answer: 3.3 µM

Question: What does the source list for `Oc1ccccc1OCc1ccccc1` [2-(phenylmethoxy)phenol]?
Answer: IC50 (prostaglandin synthetase): 5.2 µM; IC50 (platelet aggregation): 0.57 µM

— patent US4244956A, “Method of treating inflammation” (Forsyth Dental Infirmary for Children, priority 1979, dated 1981)
